# System: immortalized human fibroblasts
# Assay: Proliferation of immortalized human fibroblasts (MTT, Mosmann method)
# Type: cell-based
# Settings: MTT O.D. as percent of control; tested range 10^−11M to 10^−3M; measured up to 120 h, treatments repeated every 24 h
# Method: The methods used allow evaluating the effect of substances provided with potential antifibrotic activity on the proliferation of fibroblasts.
# A line of immortalized human fibroblasts was used, maintained in a culture in a suitable medium.
# In order to carry out the proliferation experiments, the fibroblasts were detached from the flask by means of trypsinization, counted and distributed on 96-well flat-bottom plates at the concentration of 2000 cells/100 μl medium.
# Scalar concentrations of metadoxine were added (range of concentration from 10^−11M to 10^−3M).
# The plates were maintained in CO2 incubator at 37° C. The proliferation of the cells was measured at 24 h intervals up to 120 h by using the Mosmann method (10), based on the spectrophotometer determination of the conversion of MTT [3-(4,5 dimethylthiazole-2-yl)-2-5 diphenyltetrazolium bromide] to its blue reduction product, formazan, by mitochondrial enzymes of the metabolically active cells.
# The optical densities (O.D.) were determined by means of the Titertek Multiscan (Flow) spectrophotometer with 540 nm filter.
# The O.D.s of the samples are expressed as percentages of the samples with respect to the control group.
structure (smiles),measurement,value
"Cc1ncc(CO)c(CO)c1O.O=C1CC[C@@H](C(=O)O)N1 [Metadoxine, Pyridoxol L-2-pyrrolidone-5-carboxylate]",concentration at which metadoxine inhibits the fibrogenic activity / growth of fibroblasts,10^−5 M
